Results reported in EP1074259A1, “PREVENTIVES FOR ALCOHOLIC GASTRITIS” (CHUGAI SEIYAKU KABUSHIKI KAISHA, priority 1998, dated 1999).

Test system: ethanol-induced gastric mucosal injury
Assay: Prevention of 99.5% ethanol-induced gastric mucosal injury in rats
Type: in vivo
Settings: for Mucosal injury suppression rate (%): 1 h before 99.5% ethanol 1 ml/animal, n = 10/group
Description: Rats were forced to abstain from food and water for 24 hours, and used as experimental subjects. […] When the two drugs were combined, the dose of the combination treatment was set such that the proportion of sucralfate was 1/3 of the dose, and the proportion of famotidine was 2/3 of the dose, or vice versa (i.e., the proportion of sucralfate was 2/3 of the dose, and the proportion of famotidine was 1/3 of the dose). For each of the individual treatments and the combination treatments, a high dose group, a medium dose group, and a low dose group were provided by setting a high dose, a medium dose, and a low dose at a ratio of 9:3:1. Each dose level of the drug was suspended in a 2% aqueous solution of acacia. The suspension was orally administered in a volume of 2 ml/kg body weight, while only the solvent was administered in the same volume for a control group. […] One hour after administration of the test drug, 99.5% ethanol in an amount of 1 ml/animal was administered orally. One hour later, the animal subjects were sacrificed and the stomach removed, treated, and measured for the extent of injuries occurring in the gastric mucosa. The total amount of injuries occurring In the respective animals was calculated to determine the ED50 values for the preventive effect of the test drug on gastric mucosal injury. […]

Row | Compound | ED50 (Rattus norvegicus, po, drug administered alone, P.O., rats, read-out: 50% preventive dose ED50) | Mucosal injury suppression rate (%) (famotidine alone 10 mg/kg P.O.) | Mucosal injury suppression rate (%) (famotidine alone 30 mg/kg P.O.) | Mucosal injury suppression rate (%) (famotidine alone 90 mg/kg P.O.) | 50% preventive dose ED50 (mg/kg) (drug administered alone, P.O., rats) | Mucosal injury suppression rate (%) (sucralfate alone 10 mg/kg P.O.) | Mucosal injury suppression rate (%) (sucralfate alone 30 mg/kg P.O.) | Mucosal injury suppression rate (%) (sucralfate alone 90 mg/kg P.O.)
1 | NC(N)=Nc1nc(CSCCC(N)=NS(N)(=O)=O)cs1 [Famotidine, famotidine] | 46.3 mg/kg | 13% | 42% | 66% | – | – | – | –
2 | sucralfate | – | – | – | – | Sucralfate 21.4 mg/kg | 19% | 69% | 92%
